Measurements taken from patent US8129380B2, “Phthalazinone derivatives” (AstraZeneca AB, priority 2008, dated 2012).

Columns and labels:
HeLa cells = experiment: Potentiation Factor (PF50): MMS growth inhibition, SRB assay; type: cell-based; conditions: MMS 0-10 μg/ml, ratio IC50 control / IC50 + inhibitor; for PF50 (30 nM): PARP inhibitor at 30 nM; for PF50 (200 nM): PARP inhibitor at 200 nM
Description: The Potentiation Factor (PF50) for compounds is calculated as a ratio of the IC50 of control cell growth divided by the IC50 of cell growth+PARP inhibitor. Growth inhibition curves for both control and compound treated cells are in the presence of the alkylating agent methyl methanesulfonate (MMS). The test compounds were used at a fixed concentration of 0.2 micromolar. The concentrations of MMS were over a range from 0 to 10 μg/ml.
2,000 HeLa cells were seeded into each well of a flat-bottomed 96-well microtiter plate in a volume of 100 μl and incubated for 6 hours at 37° C. Cells were either replaced with media alone or with media containing PARP inhibitor at a final concentration of 30 nM or 200 nM. […] Cells treated with PARP inhibitor alone were used to assess the growth inhibition by the PARP inhibitor.
Cells were left for a further 16 hours before replacing the media and allowing the cells to grow for a further 72 hours at 37° C. The media was then removed and the cells fixed with 100 μl of ice cold 10% (w/v) trichloroacetic acid. The plates were incubated at 4° C. for 20 minutes and then washed four times with water. Each well of cells was then stained with 100 μl of 0.4% (w/v) SRB in 1% acetic acid for 20 minutes before washing four times with 1% acetic acid. Plates were then dried for 2 hours at room temperature. The dye from the stained cells was solubilized by the addition of 100 μl of 10 mM Tris Base into each well.

[1] = molecular target: T1, P-glycoprotein (KBA1 cells) (Homo sapiens, UniProt P08183); experiment: P-gp substrate activity, Dose Modification Ratio with/without Verapamil, SRB assay; type: in vitro ADME; conditions: IC50 without Verapamil / IC50 with 20 μM Verapamil, 5 days
T1 construct: Cells from the Hela cell line known as KBA1, which expressed high P-glycoprotein; endogenous in cells; host or cells: KBA1 (HeLa-derived) cells; matched non-P-gp line KB31
T1 sequence (P08183 whole entry): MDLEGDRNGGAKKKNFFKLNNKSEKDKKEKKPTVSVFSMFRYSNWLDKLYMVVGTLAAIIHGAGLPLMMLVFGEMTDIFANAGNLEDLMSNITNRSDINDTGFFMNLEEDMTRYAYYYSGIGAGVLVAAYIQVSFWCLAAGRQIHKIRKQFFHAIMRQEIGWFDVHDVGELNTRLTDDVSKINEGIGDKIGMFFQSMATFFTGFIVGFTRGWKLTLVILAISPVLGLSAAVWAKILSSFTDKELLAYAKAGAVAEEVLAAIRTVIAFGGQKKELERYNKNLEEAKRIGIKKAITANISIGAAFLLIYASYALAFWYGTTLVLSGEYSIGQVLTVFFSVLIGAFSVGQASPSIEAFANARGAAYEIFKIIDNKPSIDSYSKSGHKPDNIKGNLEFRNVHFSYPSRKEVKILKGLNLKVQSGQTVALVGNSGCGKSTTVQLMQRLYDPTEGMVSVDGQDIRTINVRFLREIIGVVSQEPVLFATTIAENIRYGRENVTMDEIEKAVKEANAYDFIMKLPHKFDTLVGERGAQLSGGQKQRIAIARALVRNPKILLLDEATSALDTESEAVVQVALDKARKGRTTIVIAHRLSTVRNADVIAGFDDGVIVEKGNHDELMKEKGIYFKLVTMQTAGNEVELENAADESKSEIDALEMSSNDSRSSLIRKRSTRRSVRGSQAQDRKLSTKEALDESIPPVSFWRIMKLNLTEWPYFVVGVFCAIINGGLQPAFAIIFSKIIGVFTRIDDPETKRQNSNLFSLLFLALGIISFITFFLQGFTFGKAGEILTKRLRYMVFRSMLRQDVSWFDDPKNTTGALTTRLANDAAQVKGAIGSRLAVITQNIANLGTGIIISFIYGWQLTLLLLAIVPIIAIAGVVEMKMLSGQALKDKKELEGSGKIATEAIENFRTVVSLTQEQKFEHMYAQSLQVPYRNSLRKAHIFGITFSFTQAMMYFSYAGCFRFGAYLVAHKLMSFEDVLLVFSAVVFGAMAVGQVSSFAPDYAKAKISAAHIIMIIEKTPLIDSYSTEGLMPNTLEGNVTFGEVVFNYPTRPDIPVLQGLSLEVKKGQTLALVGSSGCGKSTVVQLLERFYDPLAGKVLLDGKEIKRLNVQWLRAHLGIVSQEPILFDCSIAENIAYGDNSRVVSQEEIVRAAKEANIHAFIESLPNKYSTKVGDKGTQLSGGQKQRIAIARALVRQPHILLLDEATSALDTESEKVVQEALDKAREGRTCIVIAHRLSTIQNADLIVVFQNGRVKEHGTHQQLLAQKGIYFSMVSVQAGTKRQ
Description: Cells from the Hela cell line known as KBA1, which expressed high P-glycoprotein (ABC1a and ABC1b transporter glycoproteins also known as MDR1a and MDR1b) and the matched non-P-glycoprotein expressing line known as KB31, were seeded onto 96 well tissue culture plates with 80 μl per well of 1.00×10^4 cells/ml=800 cells/well [DMEM, 10% FBS, PSG] and left to adhere for 4 hours. After the incubation period 10 μl per well of 200 μM Verapamil (giving a final conc. of 20 μM) a known inhibitor of P-gp or vehicle media were added to various wells of the cell plates. The 96 well plates were left in the incubator for 1 hour prior to 10 μl of test compound (or the known substrate Etoposide as a reference control) or 10 μl PBS/1% DMSO vehicle (control wells) being added into either Verapamil containing or media control wells. […]
The cell plates were then incubated for 5 days prior to cell growth being assessed using the Sulforhodamine B (SRB) assay as described previously. The P-gp substrate activity for each compound was calculated using the cell growth activity of the tests compounds on the KBA1 cells in the presence or absence (control wells) of Verapamil. The Dose Modification Ratio (DMR) is calculated from the KBA1 where for each test compound a ratio of the IC50 of the compound in the absence of Verapamil is divided by the IC50 of cell growth in the presence of Verapamil. […]

[2] = Solubility in 0.1 M phosphate buffer; type: physicochemical; conditions: pH 7.4, 24 hours, 25° C.
Description: The solubility of the test compounds was measured following a method described in Leach, A., et al., J Med Chem (2006), 49(23), 6672-6682:
Solubility values are determined from agitation of compounds in 0.1 M phosphate buffer at pH 7.4 for 24 hours at 25° C. The supernatant is separated from undissolved material by double centrifugation and subsequently analysed and quantified against a standard of known concentration in DMSO using generic HPLC-UV methodology coupled with mass spectral peak identification.

| Dose Modification Ratio (DMR) [1] | solubility [2] | Structure (SMILES) | PF50 (30 nM) (HeLa cells) | PF50 (200 nM) (HeLa cells) |
| --- | --- | --- | --- | --- |
| 1.3 | 1070 µmol | COC1CCN(C(=O)c2cc(Cc3n[nH]c(=O)c4ccccc34)ccc2F)CC1 [Compound 2b, 4-(4-fluoro-3-(4-methoxypiperidine-1-carbonyl)benzyl)phthalazin-1(2H)-one] | 3.0 | 15 |
| 1.0 | 211 µmol | CCOC1CCN(C(=O)c2cc(Cc3n[nH]c(=O)c4ccccc34)ccc2F)CC1 [Compound 2f, 4-(3-(4-ethoxypiperidine-1-carbonyl)-4-fluorobenzyl)phthalazin-1(2H)-one] | 14.1 | 25 |
